According to PMC11990898, “Novel Isatin–Chalcone Hybrid Molecules: Design, Synthesis and Anti-Neuroinflammatory Activity Evaluation” (Molecules, 2025):
“And” between values parts separate entries of the source, which are not always exact repeats. Identical values can stand only once.

Assays:
Type in all cases: cell-based, mouse
[1] = tested on: NO release from LPS-stimulated BV2 cells; assay: NO release inhibition in LPS-stimulated BV2 cells (Griess method); details: for Nitrite (NO release amount): BV2 cells induced by LPS, Griess test; for Nitrite (NO release amount) / inhibition at 20 µM: compound at 20 μM; for IC50 / inhibition at 20 µM: Mus musculus, BV-2, LPS-stimulated BV2 cells; for IC50: 24 h; for inhibition at 20 µM: read-out: NO inhibition rate
Experimental: BV2 cells stimulated by lipopolysaccharide (LPS) lead to an increase in NO release. Therefore, we used the inhibitory ability of the target compounds on NO as a preliminary method to evaluate their anti-neuroinflammatory properties. We evaluated the inhibitory ability of isatin–chalcone hybrid derivatives 4a–t on the release of NO from BV2 cells at 20 μM. The release amount of NO was detected by the Griess method, and the actual release amount of NO was calculated based on the experimental data.
BV2 cells were plated in 96-well microplates at 40,000 cells per well (100 μL/well) and incubated for 24 h. Then, 50 μL of LPS solution with a final concentration of 100 ng/mL and 50 μL of compounds (diluted with medium to a final concentration of 0.31–20 μM) were added, and each concentration had 3 parallel wells. The NO assay kit was used to carry out nitrite assays after 24 h. The 50 μL of culture medium was mixed with the GrisR1 (50 μL) and GrisR2 (50 μL) of the NO assay kit in another new 96-well plate. The absorbance was detected at 540 nm. The percentage of inhibition of NO was obtained from the following formula: [(Rlps − RB − RC)/(Rlps − RB)] × 100, where Rlps is the release amount of only the LPS-treated group, RB is the release amount of the normal control and RC is the release amount of the test compound and LPS-treated group. The IC50 values of test compounds were calculated by linear regression plots.

BV2 microglial cells = assay: Cell viability assay (MTS) on BV2 cells; details: for IC50: Mus musculus, BV-2, MTS; for IC50 / cell viability: 24 h; for cell viability: compound at 25 μM, MTS
Experimental: (§1) BV2 microglial cells (SCSP-5208, Cell Bank, Chinese Academy of Sciences, Shanghai, China) were incubated in high-glucose DMEM supplemented with 10% fetal bovine serum and 1% penicillin and streptomycin in a humidified atmosphere of 5% CO2 at 37 °C.
(§2) BV2 cells were plated in 96-well microplates at 20,000 cells per well (100 μL/well) and incubated for 24 h. Then, 100 μL of compounds (diluted with medium to a final concentration of 1.56–100 μM) was added, and each concentration had 3 parallel wells. After 24 h, the cell viability was measured by MTS assay. The absorbance was detected at 490 nm. The percentage of viability was obtained from the following formula: ODdrug-treated/ODnormal cells × 100. The IC50 values of test compounds were calculated by linear regression plots.

[2] = Cell viability assay (MTS) on BV2 cells; details: mouse, BV2 microglial cells, MTS
Experimental: as §1, §2

With `CCOC(=O)CN1C(=O)/C(=C/C(=O)c2ccc(CC)cc2)c2ccccc21` [Compound 4e, Ethyl (E)-2-(3-(2-(4-ethylphenyl)-2-oxoethylidene)-2-oxoindolin-1-yl)acetate] the “Nitrite (NO release amount)” value [1] was 15.2 ± 0.3 µM.

In the case of `CCOC(=O)CN1C(=O)/C(=C/C(=O)C2CC2)c2ccccc21` [Compound 4t, Ethyl (E)-2-(3-(2-cyclopropyl-2-oxoethylidene)-2-oxoindolin-1-yl)acetate], the “Nitrite (NO release amount)” value [1] is reported as 16.7 ± 0.2 µM.

With `CCOC(=O)CN1C(=O)/C(=C/C(=O)c2ccc3ccccc3c2)c2ccccc21` [Compound 4p, Ethyl (E)-2-(3-(2-(naphthalen-2-yl)-2-oxoethylidene)-2-oxoindolin-1-yl)acetate] the “Nitrite (NO release amount)” value [1] was 17.0 ± 0.3 µM.

`COc1cc(C(=O)/C=C2/C(=O)N(CC(=O)OCCc3ccccc3)c3ccccc32)cc(OC)c1OC` [Compound 5f, Phenethyl (E)-2-(2-oxo-3-(2-oxo-2-(3,4,5-trimethoxyphenyl)ethylidene)indolin-1-yl)acetate] showed an IC50 (BV2 microglial cells) of 42.7 µM and an IC50 [1] of 10.7 µM.

`CCOC(=O)CN1C(=O)/C(=C/C(=O)c2cc(OC)c(OC)c(OC)c2)c2cc(OC)ccc21` [Compound 9f, Ethyl (E)-2-(5-methoxy-2-oxo-3-(2-oxo-2-(3,4,5-trimethoxyphenyl)ethylidene)indolin-1-yl)acetate] showed an IC50 (BV2 microglial cells) of 78.1 µM, an IC50 [1] of 10.4 µM and an inhibition at 20 µM [1] of 68%.

For `CCOC(=O)CN1C(=O)/C(=C/C(=O)c2ccc(OCC)cc2)c2ccccc21` [Compound 4i, Ethyl (E)-2-(3-(2-(4-ethoxyphenyl)-2-oxoethylidene)-2-oxoindolin-1-yl)acetate], the “Nitrite (NO release amount)” value [1] was 15.3 ± 0.3 µM.

`CCCCCCCOC(=O)CN1C(=O)/C(=C/C(=O)c2cc(OC)c(OC)c(OC)c2)c2ccccc21` [Compound 5b, Heptyl (E)-2-(2-oxo-3-(2-oxo-2-(3,4,5-trimethoxyphenyl)ethylidene)indolin-1-yl)acetate] gave an IC50 (BV2 microglial cells) of 45.3 µM and an IC50 [1] of 15.8 µM.

Work on `COC(=O)CN1C(=O)/C(=C/C(=O)c2cc(OC)c(OC)c(OC)c2)c2ccccc21` [Compound 5a, Methyl (E)-2-(2-oxo-3-(2-oxo-2-(3,4,5-trimethoxyphenyl)ethylidene)indolin-1-yl)acetate] yielded an IC50 (BV2 microglial cells) of 78.6 µM and an IC50 [1] of 10.9 µM.

With `CCOC(=O)CN1C(=O)/C(=C/C(=O)c2ccc(C(C)C)cc2)c2ccccc21` [Compound 4f, Ethyl (E)-2-(3-(2-(4-isopropylphenyl)-2-oxoethylidene)-2-oxoindolin-1-yl)acetate] the cell viability (BV2 microglial cells) was “nearly non-cytotoxic” and the “Nitrite (NO release amount)” value [1] was 17.1 ± 0.3 µM.

With `CCOC(=O)CN1C(=O)/C(=C/C(=O)c2ccco2)c2ccccc21` [Compound 4q, Ethyl (E)-2-(3-(2-(furan-2-yl)-2-oxoethylidene)-2-oxoindolin-1-yl)acetate] the cell viability (BV2 microglial cells) was “nearly non-cytotoxic”, the “Nitrite (NO release amount)” value [1] was 20.2 ± 0.4 µM and the inhibition at 20 µM [1] was 30%.

In the case of `CCOC(=O)CN1C(=O)/C(=C/C(=O)c2ccc(Cl)cc2)c2ccccc21` [Compound 4l, Ethyl (E)-2-(3-(2-(4-chlorophenyl)-2-oxoethylidene)-2-oxoindolin-1-yl)acetate], the “Nitrite (NO release amount)” value [1] is reported as 17.5 ± 0.3 µM.

In the case of `CCOC(=O)CN1C(=O)/C(=C/C(=O)c2ccc(C)cc2)c2ccccc21` [Compound 4d, Ethyl (E)-2-(2-oxo-3-(2-oxo-2-(p-tolyl)ethylidene)indolin-1-yl)acetate], the “Nitrite (NO release amount)” value [1] is reported as 12.5 ± 0.2 µM.

In the case of `CCOC(=O)CN1C(=O)/C(=C/C(=O)c2ccc(-c3ccccc3)cc2)c2ccccc21` [Compound 4o, Ethyl (E)-2-(3-(2-([1,1′-biphenyl]-4-yl)-2-oxoethylidene)-2-oxoindolin-1-yl)acetate], the cell viability (BV2 microglial cells) is reported as “nearly non-cytotoxic” and the “Nitrite (NO release amount)” value [1] is reported as 19.0 ± 0.4 µM.

For `CCOC(=O)CN1C(=O)/C(=C/C(=O)c2ccccn2)c2ccccc21` [Compound 4s, Ethyl (E)-2-(2-oxo-3-(2-oxo-2-(pyridin-2-yl)ethylidene)indolin-1-yl)acetate], the cell viability (BV2 microglial cells) was “nearly non-cytotoxic” and the “Nitrite (NO release amount)” value [1] was 11.1 ± 0.4 µM.

With `CCOC(=O)CN1C(=O)/C(=C/C(=O)c2ccc([N+](=O)[O-])cc2)c2ccccc21` [Compound 4n, Ethyl (E)-2-(3-(2-(4-nitrophenyl)-2-oxoethylidene)-2-oxoindolin-1-yl)acetate] the “Nitrite (NO release amount)” value [1] was 16.7 ± 0.3 µM.

Work on `CCCCCc1ccc(C(=O)/C=C2/C(=O)N(CC(=O)OCC)c3ccccc32)cc1` [Compound 4g, Ethyl (E)-2-(2-oxo-3-(2-oxo-2-(4-pentylphenyl)ethylidene)indolin-1-yl)acetate] yielded a viability at 24 h, 3.1 µM ([2]; compound at 3.1 μM, read-out: cell viability (cell survival rate)) of 98.4%, a viability at 24 h, 6.3 μM ([2]; compound at 6.3 μM (printed 6.23 μM for 4b), read-out: cell viability (cell survival rate)) of 95.1% and a viability at 24 h, 12.5 µM ([2]; compound at 12.5 μM) of 83.9%. For the same molecule, the viability at 24 h, 25 µM ([2]; compound at 25 μM, 24 h) was 42%, the IC50 (BV2 microglial cells) was 30.1 µM and the cytotoxicity (BV2 microglial cells; under the concentration of 12.5 μM) was “did not show obvious cytotoxicity”. The “Nitrite (NO release amount)” value [1] was 8.5 ± 0.1 µM, the IC50 [1] was 10.8 µM and the inhibition at 20 µM [1] was 73%.

With `O=C1Nc2ccccc2C1=O` [Isatin, 1H-indole-2,3-dione] the “Nitrite (NO release amount)” value [1] was 20.8 ± 0.9 µM.

For `CCOC(=O)CN1C(=O)/C(=C/C(=O)c2ccc(OC)cc2)c2ccccc21` [Compound 4h, Ethyl (E)-2-(3-(2-(4-methoxyphenyl)-2-oxoethylidene)-2-oxoindolin-1-yl)acetate], the “Nitrite (NO release amount)” value [1] was 20.6 ± 0.6 µM.

For `CCOC(=O)CN1C(=O)/C(=C/C(C)=O)c2ccccc21` [Compound 4a, Ethyl (E)-2-(2-oxo-3-(2-oxopropylidene)indolin-1-yl)acetate], the “Nitrite (NO release amount)” value [1] was 22.9 µM and 22.9 ± 0.5 µM.

For `CCCCCCCCCCCOC(=O)CN1C(=O)/C(=C/C(=O)c2cc(OC)c(OC)c(OC)c2)c2ccccc21` [Compound 5c, Undecyl (E)-2-(2-oxo-3-(2-oxo-2-(3,4,5-trimethoxyphenyl)ethylidene)indolin-1-yl)acetate], the IC50 (BV2 microglial cells) was 19.8 µM and the IC50 [1] was 6.3 µM.

With `CCOC(=O)CN1C(=O)/C(=C/C(=O)c2ccc[nH]2)c2ccccc21` [Compound 4r, Ethyl (E)-2-(2-oxo-3-(2-oxo-2-(1H-pyrrol-2-yl)ethylidene)indolin-1-yl)acetate] the “Nitrite (NO release amount)” value [1] was 20.5 ± 0.6 µM and the inhibition at 20 µM [1] was 28%.

For `CCOC(=O)CN1C(=O)/C(=C/C(=O)c2ccccc2)c2ccccc21` [Compound 4c, Ethyl (E)-2-(2-oxo-3-(2-oxo-2-phenylethylidene)indolin-1-yl)acetate], the “Nitrite (NO release amount)” value [1] was 19.3 ± 0.5 µM.

For `CCOC(=O)CN1C(=O)/C(=C/C(=O)c2ccc(Br)cc2)c2ccccc21` [Compound 4m, Ethyl (E)-2-(3-(2-(4-bromophenyl)-2-oxoethylidene)-2-oxoindolin-1-yl)acetate], the “Nitrite (NO release amount)” value [1] was 18.6 ± 0.3 µM.

With `CCOC(=O)CN1C(=O)/C(=C/C(=O)c2ccc(F)cc2)c2ccccc21` [Compound 4k, Ethyl (E)-2-(3-(2-(4-fluorophenyl)-2-oxoethylidene)-2-oxoindolin-1-yl)acetate] the “Nitrite (NO release amount)” value [1] was 15.2 ± 0.2 µM.

With `CCOC(=O)CN1C(=O)/C(=C/C(=O)c2cc(OC)c(OC)c(OC)c2)c2cc(I)ccc21` [Compound 9d, Ethyl (E)-2-(5-iodo-2-oxo-3-(2-oxo-2-(3,4,5-trimethoxyphenyl)ethylidene)indolin-1-yl)acetate] the inhibition at 20 µM [1] was 22%.
